The values below come from patent US6638935B2, “Heteroary1 derivatives and their use as medicaments” (Zentaris AG, priority 2000, dated 2003).

SMILES strings stand for the structures.

One may read the melting point as the temperature of the solid-liquid transition. As for `COc1cc(OC)cc(N2CCN(C(=O)c3ccncc3)CC2)c1` [Example 13, 1-(3,5-Dimethoxyphenyl)-4-(4-pyridyl-carbonyl)piperazine], the melting point fell in the range of 94 to 96 °C.
